Experiments:
[1] = tested on: cultured human epidermal/dermal skin tissues (EpiDerm-FT); assay: Hyaluronic acid levels by HA ELISA in culture medium and tissue lysates of EpiDerm-FT; type: cell-based; conditions: vs vehicle-treated tissues
Text: (§1) The purpose of this study was to evaluate the hyaluronic acid (HA) expression change activity of RoC® HA Serum Capsules (i.e. Example 2.0), RoC® Retinol Serum Capsules (i.e. Example 1.0), commercially available HA Serum (1.5 wt. % HA) and commercially available Retinol Serum (0.3 wt. % retinol) compared to 0.15% Retinol-treated tissues in cultured human epidermal/dermal skin tissues (EpiDerm-FT™). HA levels from culture medium, tissue lysates, HA histology and gene expression related to dermal anti-aging effects were quantified using qPCR method after 24- and 72-hours incubation with test materials.

[2] = tested on: cultured human epidermal/dermal skin tissues (EpiDerm-FT); assay: Alcian Blue histology of dermal layer, image analysis, EpiDerm-FT; type: cell-based; conditions: vs vehicle-only treated tissues
Text: as §1
After incubations, tissues were fixed and subjected to the normal steps of tissue preparation for histological analysis: dehydration, paraffin embedding, sectioning and staining with Alcian Blue. Histological activity was analyzed using image analysis including blue-color deconvolution and luminosity per section area in dermal layer. The percent change effect of each treatment was calculated comparing the vehicle-only treated tissues group.

[3] = tested on: Collagen type-I (COL1A1) gene; assay: Gene expression change by qPCR in EpiDerm-FT: COL1A1; type: cell-based, human; conditions: vs vehicle-treated tissues, GAPDH housekeeping
Text: as §1

[4] = tested on: Collagen type-III (COL3A1) gene; assay: Gene expression change by qPCR in EpiDerm-FT: COL3A1; type: cell-based, human; conditions: vs vehicle-treated tissues, GAPDH housekeeping
Text: as §1

[5] = tested on: Collagen type-IV (COL4A1) gene; assay: Gene expression change by qPCR in EpiDerm-FT: COL4A1; type: cell-based, human; conditions: vs vehicle-treated tissues, GAPDH housekeeping
Text: as §1

[6] = tested on: Elastin (ELN) gene; assay: Gene expression change by qPCR in EpiDerm-FT: ELN; type: cell-based, human; conditions: vs vehicle-treated tissues, GAPDH housekeeping
Text: as §1

[7] = tested on: Fibronectin (FN1) gene; assay: Gene expression change by qPCR in EpiDerm-FT: FN1; type: cell-based, human; conditions: vs vehicle-treated tissues, GAPDH housekeeping
Text: as §1

[8] = tested on: Hyaluronic acid synthase-1 (HAS1) gene; assay: Gene expression change by qPCR in EpiDerm-FT: HAS1; type: cell-based, human; conditions: vs vehicle-treated tissues, GAPDH housekeeping
Text: as §1

[9] = tested on: Hyaluronic acid synthase-2 (HAS2) gene; assay: Gene expression change by qPCR in EpiDerm-FT: HAS2; type: cell-based, human; conditions: vs vehicle-treated tissues, GAPDH housekeeping
Text: as §1

[10] = 24 hr, n = 3, listed as 0.15% Retinol formulated in DMSO

## CC1=C(/C=C/C(C)=C/C=C/C(C)=C/CO)C(C)(C)CCC1 [0.15% Retinol in DMSO, Retinol]
[1]; 24 hr, n = 3
  Hyaluronic Acid (HA) levels change, Culture medium: +34%
  Hyaluronic Acid (HA) levels change, Tissue lysates: +52%
[1]; [10]
  Hyaluronic Acid (HA) levels change, Culture medium: 34%
  Hyaluronic Acid (HA) levels change, Tissue lysates: 52%
[1]; 72 hr, n = 3
  Hyaluronic Acid (HA) levels change, Culture medium: +25%
  Hyaluronic Acid (HA) levels change, Tissue lysates: +49%
[2]; 24 hr
  Histology, Alcian Blue in Dermis staining change: +81%
[2]; 72 hr
  Histology, Alcian Blue in Dermis staining change: −9%
[3]; 24 hr
  Gene Expression change, COL1A1: −22%
[3]; 72 hr
  Gene Expression change, COL1A1: +18%
[4]; 24 hr
  Gene Expression change, COL3A1: −22%
[4]; 72 hr
  Gene Expression change, COL3A1: +8%
[5]; 24 hr
  Gene Expression change, COL4A1: −30%
[5]; 72 hr
  Gene Expression change, COL4A1: +9%
[6]; 24 hr
  Gene Expression change, ELN: −21%
[6]; 72 hr
  Gene Expression change, ELN: +25%
[7]; 24 hr
  Gene Expression change, FN1: −16%
[7]; 72 hr
  Gene Expression change, FN1: +45%
[7]; 72 hr, listed as 0.15% Retinol formulated in DMSO
  Gene Expression change, FN1: 45%
[8]; 24 hr
  Gene Expression change, HAS1: −52%
[8]; 72 hr
  Gene Expression change, HAS1: −29%
[9]; 24 hr
  Gene Expression change, HAS2: −11%
[9]; 72 hr
  Gene Expression change, HAS2: −18%

Reference: US20230099811A1, “COMPOSITION OF HYALURONIC ACID AND USE ALONE AND IN COMBINATION WITH RETINOIDS TO IMPROVE SKIN” (RoC OPCO LLC, priority 2021, published 2023)
